What was measured:
[1] = tested on: prostate adenocarcinoma PC3-M tumors; parameters: AUC: unit not given beside the values
Procedure: Dynamic ^11C-choline, ^11C-D4-choline and ^18F-D4-choline imaging scans were carried out on a dedicated small animal PET scanner (Siemens Inveon PET module, Siemens Medical Solutions USA, Inc., Malvem, Pa., USA) following a bolus i.v. injection in tumor-bearing mice of either ˜3.7 MBq for ^18F studies, or ˜18.5 MBq for ^11C. Dynamic scans were acquired in list mode format over 60 min. The acquired data were then sorted into 0.5 mm sinogram bins and 19 time frames for image reconstruction (4×15 s, 4×60 s, and 11×300 s), which was done by filtered back projection. For input function analysis, data were sorted into 25 time frames for image reconstruction (8×5 s, 1×20 s, 4×40 s, 1×80 s, and 11×300 s). The Siemens Inveon Research Workplace software was used for visualization of radiotracer uptake in the tumor; 30 to 60 min cumulative images of the dynamic data were employed to define 3-dimensional (3D) regions of interest (ROIs). Arterial input function was estimated as follows: a single voxel 3D ROI was manually drawn in the center of the heart cavity using 2 to 5 min cumulative images. Care was taken to minimize ROI overlap with the myocardium. The count densities were averaged for all ROIs at each time point to obtain a time versus radioactivity curve (TAC). Tumor TACs were normalized to injected dose, measured by a VDC-304 dose calibrator (Veenstra Instruments, Joure, The Netherlands), and expressed as percentage injected dose per mL tissue. The area under the TAC, calculated as the integral of % ID/mL from 0-60 min, and the normalized uptake of radiotracer at 60 min (% ID/mL60) were also used for comparisons.
For PET imaging, tumors were grown to 100 mm^3 prior to imaging.
A 2-tissue irreversible compartmental model was employed to fit the TACs, as has been previously established for ^11C-choline (Kenny L M, Contractor K B, Hinz R, et al. Reproducibility of [11C]choline-positron emission tomography and effect of trastuzumab. Clin Cancer Res. Aug. 15 2010; 16(16):4236-4245; and Sutinen E, Nurmi M, Roivainen A, et al. Kinetics of [(11)C]choline uptake in prostate cancer: a PET study. Eur J Nucl Med Mol. Imaging. March 2004; 31(3):317-324). An estimate of the whole blood TAC (wbTAC(t)) was derived from the PET image itself, as described above. […] Therefore it was fitted with a sum of 3 exponentials from the peak on and the fitted function was used as input function in the kinetic modeling (after metabolite correction, see below). […] The pf values were fitted to a sum of two exponentials with the constraint pf(t=0)=1 to obtain the function pf(t). The parent whole blood TAC wbTACPAR(t) was then computed by multiplying wbTAC(t) and pf(t) and used as input function to estimate the parameters K1 (mL/cm^3/min), k2 (1/min), k3 (1/min) and Vb (unitless). The steady state net irreversible uptake rate constant Ki (mL/cm^3/min) was calculated from the estimated microparameters as K1k3/(k2+k3).

[2] = tested on: human melanoma SKMEL-28 xenografts; settings: mouse, in vivo
Procedure: Dynamic [^18F]FCH and [^18F]D4-FCH imaging scans were carried out on a dedicated small animal PET scanner, quad-HIDAC (Oxford Positron Systems). The features of this instrument have been described previously (Barthel, H., et al., Cancer Res 2003; 63(13):3791-8). For scanning the tail veins, vehicle- or drug-treated mice were cannulated after induction of anesthesia (isofluorane/O2/N2O). The animals were placed within a thermostatically controlled jig (calibrated to provide a rectal temperature of ˜37° C.) and positioned prone in the scanner. [^18F]FCH or [^18F]D4-FCH (2.96-3.7 MBq) was injected via the tail vein cannula and scanning commenced. Dynamic scans were acquired in list mode format over a 60 min period as reported previously (Leyton, J., et al., Cancer Research 2006; 66(15):7621-9). The acquired data were sorted into 0.5 mm sinogram bins and 19 time frames (0.5×0.5×0.5 mm voxels; 4×15, 4×60, and 11×300 s) for image reconstruction, which was done by filtered back-projection using a two-dimensional Hamming filter (cutoff 0.6). The image data sets were visualized using the Analyze software (version 6.0; Biomedical Imaging Resource, Mayo Clinic). Cumulative images of 30 to 60 min dynamic data were used for visualization of radiotracer uptake and to draw regions of interest. Regions of interest were defined manually on five adjacent tumor regions (each 0.5 mm thickness). Dynamic data from these slices were averaged for each tissue (liver, kidney, muscle, urine, and tumor) and at each of the 19 time points to obtain time versus radioactivity curves. Corresponding whole body time versus radioactivity curves representing injected radioactivity were obtained by adding together radioactivity in all 200×160×160 reconstructed voxels. Tumor radioactivity was normalized to whole-body radioactivity and expressed as percent injected dose per voxel (% ID/vox). The normalized uptake of radiotracer at 60 min (% ID/vox60) was used for subsequent comparisons. The average of the normalized maximum voxel intensity across five slices of tumor % IDvox60max was also use for comparison to account for tumor heterogeneity and existence of necrotic regions in tumor. The area under the curve was calculated as the integral of % ID/vox from 0 to 60 min.

[3] = tested on: choline oxidase; assay: Enzymatic oxidation study using choline oxidase; settings: 60 minute time point, radio-HPLC
[4] = PC3-M tumors, 2-tissue irreversible model

SMILES: [2H]C([2H])(O)C([2H])([2H])[N+](C)(C)C[18F] [[^18F]D4-FCH, [^18F]fluoromethyl-[1,2-^2H4]-choline]
- K1′ [1, 4]: 0.090 ± 0.007
- Ki [1, 4]: 0.009 ± 0.002 mL/cm^3/min
- k3 [1, 4]: 0.040 ± 0.006 min⁻¹
- AUC ([1]; mouse, in vivo): 121.3 ± 3.1
- NUV60 ([1]; mouse, in vivo): 1.97 ± 0.07 % ID/mL
- increase in % ID/mLmax, smaller versus larger tumors ([1]; mouse, in vivo): 1.4 fold
- increase in normalized uptake at 60 min, smaller versus larger tumors ([1]; mouse, in vivo): 2.4 fold
- time to maximal tumor-specific radioactivity ([1]; mouse, in vivo): ≤ 5 min
- % IDvox60max (average of maximum pixel % ID/vox60 across 5 slices) [2]: significantly higher
- tumor area under the time versus radioactivity curve (AUC) [2]: higher
- parent radiotracer present [3]: 29±4%

Source: patent US20130183239A1, “ISOTOPIC CARBON CHOLINE ANALOGS” (IMPERIAL COLLEGE, priority 2010, published 2013)
